# In patent publication US10111847B2, “Compounds and methods for modulating vascular injury” (The Regents of the University of California, priority 2012, dated 2018):
# What was measured:
# Type in all cases: cell-based, human
# [1] = test system: VSMC; assay: Transwell migration of VSMC to PDGF-AB; conditions: 100 nM; chemotaxis to PDGF-AB 50 ng/mL, 8 hours; P<0.01
# Description: Primary cultures of human greater saphenous vein smooth muscle cells (hVSMC) are isolated from saphenous vein discarded at the time of bypass operation in an Institutional Review Board-approved protocol as described by Conte et al. “Regulation of vein graft hyperplasia by survivin, an inhibitor of apoptosis protein.” Arterioscler Thromb Vasc Biol. 2005; 25:2081-2087. VSMCs are maintained in Dulbecco's modified Eagle's medium (DMEM Low Glucose) (HyClone Laboratories Inc, Logan, Utah) containing 10% fetal bovine serum (FBS) (Invitrogen Life Technologies, Grand Island, N.Y.) and used between passages 2-5. Endothelial cells were maintained in Medium 199 supplemented with EBSS (Hyclone Laboratories, Logan, Utah, USA) and Endothelial Cell Growth Supplement. Cells between passages 3-8 were used for the experiments.
# RvD. […]
# FIG. 1: RvD1 and RvD2 attenuate cell adhesion, proliferation, and migration responses of human VSMC in-vitro. […] Results are shown as relative percent inhibition, expressed as a percentage of the maximal adhesion for the agonist (n=6, results are mean±SEM, **P<0.01, *P<0.05, unpaired t-test). […] Results are expressed as percentage change in migration from unstimulated control (no PDGF). […]
# [2] = test system: ICAM-1; assay: TNF-α-stimulated ICAM-1 gene expression in VSMC by qRT-PCR; conditions: 100 nM; TNF-α 10 ng/ml 18 hours; P<0.01
# Method: (§1) Cells are plated onto 6-well plates at 100% confluency in DMEM plus 10% FBS and allowed to attached overnight. Cells are then made quiescent by placing in serum-free media for 48-72 hours prior to start of experiments. Cells are treated with or without RvD1 or RvD2 at the indicated concentrations for one hour followed by co-incubation with cytokine (TNF-α 10 ng/ml) for up to 18 hours. In a separate set of experiments to examine the role of G-protein receptors, VSMCs are exposed to TNF-α and RvD2 (10 nM) as described above, in the presence or absence of pertussis toxin (PTX 100 ng/ml). Total RNA from rabbit sample or cells is isolated with PureLink RNA Mini kit (Ambion Life Technologies, Carlsbad, Calif.) with RNase-free DNase treatment according to manufacturer's protocol. One microgram of total RNA (from either VSMC or rabbit tissue) is used to generate cDNA using High Capacity cDNA Reverse Transcription Kit (Applied Biosystems, Foster City, Calif.) for subsequent RT-PCR reactions. Sybrgreen Amplified DNA is detected by incorporation SYBR Green (Qiagen, Germantown, Md.). Dissociation curve analyses are performed to confirm the specificity of the SYBR Green signal. Data is normalized to at least two reference genes. […]
# (§2) FIG. 2: RvD1 and RvD2 reduce pro-inflammatory gene expression in VSMC. […] Expression of the cell adhesion molecules VCAM-1 (A) and ICAM-1 (B) was measured by qRT-PCR. […]
# [3] = test system: TNF-α, IL-1β, MCP-1, IL-6, and IL-1α; assay: TNF-α-stimulated inflammatory cytokine gene expression in VSMC by qRT-PCR; conditions: 0.1 nM or 10 nM, greatest attenuation in IL-1β
# Method: as §1, §2
# [4] = test system: VSMC; assay: MTT cell viability assay; conditions: 1-100 nM for 8 hours
# Method: Cells are plated onto 24-well plates and treated with or without RvD1 or RvD2 (1, 10, and 100 nM) for 8 hours. MTT viability assay is performed per manufacturer's instructions (TOX1 assay, Sigma).
# FIG. 8: Cell viability is not affected by RvD1 or RvD2. Cells were treated with or without RvD1 or RvD2 (1, 10, and 100 nM) for 8 hours.
Compound,Maximum % reduction in the cell migration assay [1] [%],"ICAM-1 expression, maximum % reduction [2] [%]","expression of multiple inflammatory cytokines including TNF-α, IL-1β, MCP-1, IL-6, and IL-1α [3]",loss of cell viability (MTT cytotoxicity assay) [4]
"CC/C=C\C[C@H](O)[C@H](O)/C=C/C=C/C=C\C=C\[C@@H](O)C/C=C\CCC(=O)O [RvD2, resolvin D2]",69,70,"broad, significant reduction",did not display significant loss of cell viability
"CC/C=C\C[C@H](O)/C=C/C=C\C=C\C=C\[C@@H](O)[C@@H](O)C/C=C\CCC(=O)O [RvD1, Resolvin D1]",63,63,"broad, significant reduction",did not display significant loss of cell viability
